Source: the NIST ThermoML archive (doi:10.1021/je400488x)
Numbers after ± are expanded uncertainties.

Experiments:
[1] = refractive index (Na D-line) (dimensionless); conditions: 298.15 K; 101.33 kPa; Liquid; Standard Abbe refractometry
[2] = 293.15 K; 101.33 kPa; Liquid; Vibrating tube method

SMILES	refractive index [1]	mass density [2] [kg/m3]
COC(C)(C)C [2-methoxy-2-methylpropane]	1.3689 ± 0.0005	739.8 ± 0.4
Oc1ccc(O)cc1 [1,4-benzenediol]	–	1328 ± 1
